The source of these data is patent US12365739B2, “Monoclonal antibodies to angiotensin-(1-12), compositions including the same, and methods of use thereof” (Wake Forest University Health Sciences, priority 2021, dated 2025).

The subject of test [1] is TGR(hAGT)L1623 rats. The following applies: chronic administration; cited from earlier work.
Test [2] deals with T1, Ang II (Homo sapiens, UniProt P01019).
T1 construct: host or cells: injected into TGR(hAGT)L1623 rats
Put plainly: Specificity of immunoneutralization: pressor response to Ang II. It is filed as in vivo. How it is done:
In a separate group of 12 TGR(hAGT)L1623 rats (6 females) the blood pressure and heart rate responses to intravenous bolus injection of a monoclonal antibody directed against the human amino acid sequence of Ang-(1-12) [Ang-(1-12)-mAb] was administered at a dose of 30 mg/kg. […] The Ang-(1-12)-mAb was diluted in physiological saline to a concentration of 30 mg in a volume not to exceed 1 mL of buffered saline. The specificity of the immunoneutralization of Ang-(1-12) was evaluated in additional experiments in which the rat sequence of Ang-(1-12) (300 pmol/kg, n=2); Ang II (50 pmol/kg; n=3 TGR(hAGT)L1623 rats) or an […] mouse IgG (30 mg/kg, n=4 TGR(hAGT)L1623 rats; Innovative Research, Inc. Novi, MI) were administered intravenously.

For test [3], the system named is Sprague Dawley (SD) rats and TGR(hAGT)L1623 rats. Put plainly: Systemic vasoconstrictor activity of intravenous h-Ang-(1-12). The following applies: for time to peak of increase in mean arterial pressure: 75-300 pmol/kg i.v. It is filed as in vivo, rat. How it is done:
Efficacy of Ang-(1-12) Immunoneutralization in vivo: We examined the systemic vasoconstrictor activity of Ang-(1-12) (dose range 75-300 pmol) in 20 (10 females) Sprague Dawley (SD) rats (age 12-weeks) and 20 (10 female) other rats expressing the human sequence of the AGT gene [TGR(hAGT)L1623] (age 10-12 weeks) following induction of general anesthesia with thio-butabarbital sodium [Inactin® (135 mg/kg, i.p.)] and tracheal intubation for mechanical ventilation. Plastic catheters were introduced into a left carotid artery [PE-50 catheter attached to a heparinized saline wash syringe (15 USP U/mL) and a femoral vein (PE-10) for drug delivery. Phasic and mean arterial pressures, recorded with a True Wave pressure transducer (Edwards Lifesciences, Co, Irvine, CA) connected to the arterial cannula, were processed by a data-acquisition and analysis system with Acknowledge 5 software (MP160, BIOPAC System Inc., Goleta, CA). Heart rate was derived by the software from the electrical analysis of the rise portion of the pressure waveform.

The subject of test [4] is isolated carotid artery rings. The test is described as follows: Ang-(1-12) constrictor activity in isolated carotid artery rings. Set-up: species or system rat. Conditions: concentration of 5×10^−1; SD and TGR(hAGT)L1623 rats; FIG. 7. From the text:
Efficacy of Ang-(1-12) Immunoneutralization in Isolated Carotid Arteries. The ability of the Ang-(1-12)-mAb to block Ang-(1-12) vasoconstrictor activity in 6 SD and 3 TGR(hAGT)L1623 rats was further assessed in isolated carotid artery rings that were mounted in organ chambers as described elsewhere.^3 Under a dissecting microscope, both carotid arteries were dissected free of adventitial tissue, cut into 1.5-2 mm segments and mounted on a myograph (Multi Myograph, Model 610M Danish Myo Technologies, Aarhus, Denmark) using two stainless steel hooks. In all the arterial segments, the endothelium was disrupted by passing a human hair through the lumen of the vessel. The myograph chamber was filled with Krebs-Henseleit buffer (KHB) solution, maintained at 37° C. and aerated with 95% O2/5% CO2. The vessels were washed and incubated for 30 min before determining the optimal diameter. Each arterial segment was stretched to its individual optimal lumen diameter following the normalization procedure previously described. In all studies, after obtaining the optimal diameter, a 30-min equilibration period preceded the addition of the test substances. Contractile responses to a single dose of 62.5 mM KCl was obtained for all segments by calculating the average of three consecutive doses tested at 15 min intervals. This response was used to normalize tension between individual arterial segments. […]

For the compound `CCCCC(=O)N(Cc1ccc(-c2ccccc2-c2nnn[nH]2)cc1)[C@H](C(=O)O)C(C)C` [valsartan], the effect on hypertension result in test [1] is “Reversal of the hypertension”.

For the compound “angiotensin II (DRVYIHPF; listed as Homo sapiens) [Ang II]”, the “peak mean arterial pressure after bolus intravenous Ang II” value was 117±13 mm Hg in test [2] (30-60 min after delivery of the Ang-(1-12) mAb, baseline 100±12 mm Hg) and 114±8 mm Hg in test [2] (before the Ang-(1-12) mAb, baseline 95±6 mm Hg).

Turning to “human angiotensin-(1-12) (DRVYIHPFHLVI; listed as Homo sapiens) [h-Ang-(1-12)]”, the results for the “time to peak of increase in mean arterial pressure” value in test [3] (SD rats) and in test [3] (TGR(hAGT)L1623 rats) were 32.45 ± 1.08 s and 36.20 ± 1.52 s, respectively. For the same compound, in test [3] (i.v. doses between 75 pmol/kg and 300 pmol/kg), the “change in mean arterial pressure” value was “rapid and dose-dependent increases”. For the same compound, in test [4], the “constrictor responses in carotid artery rings normalized for KCL” value is recorded as “significant constrictor responses”.
